Consider three molecules from article PMC7997382 (2020).

Common to all, as to assay: ESI-MS, negative mode
The subject of test [1] is ssDNA1 (DNA, single strand) GTCCATGCCCCAGGCCCACC
To be noted: ammonium acetate 15 mM, 10-fold molar excess over dsDNA, 24 h, ssDNA in equilibrium with dsDNA.

Test [2] deals with 20 mer double strand DNA (dsDNA) (DNA, duplex) GTCCATGCCCCAGGCCCACC/GGTGGGCCTGGGGCATGGAC
To be noted: ammonium acetate 15 mM, 10-fold molar excess of compound, room temperature, 24 h, diluted 1:10, pH 6.8.

Test [3] concerns ssDNA2 (DNA, single strand) GGTGGGCCTGGGGCATGGAC
To be noted: ammonium acetate 15 mM, 10-fold molar excess over dsDNA, 24 h, ssDNA in equilibrium with dsDNA.

As for `C=C.CC(=O)OC[C@H]1O[C@@H](N2[C]N(C)C=C2)[C@H](OC(C)=O)[C@@H](OC(C)=O)[C@@H]1OC(C)=O.Cc1ccc2ccc3ccc(C)nc3c2n1.[CH3-].[Pt+2]`, the binding entry is on record as “no” in test [1] (no adduct peak), “yes” in test [2] and “no” in test [3] (no adduct peak).
For `CC(=O)OC[C@H]1O[C@@H](N2[C]N(C)C=C2)[C@H](OC(C)=O)[C@@H](OC(C)=O)[C@@H]1OC(C)=O.[CH3-].[CH3-].[CH3-].[Pt+4].c1cnc2c(c1)ccc1cccnc12`, the binding entry in test [1] (partial binding) is reported as “weak”; in test [2], “yes”; in test [3] (partial binding), “weak”.
As to `N.N.[Cl-].[Cl-].[Pt+2]`, the binding entry in test [2] (covalent, each cisplatin lost both chloride ligands) is given as “yes”.
